According to patent publication US20210267944A1 (BioXcel Therapeutics, Inc., priority 2018, published 2021):
Where a name gives a salt, the structure may show the parent alone. Read-outs that look alike come from different tables or passages of the source.

Legend:
[1] = human, in vivo
[2] = human, in vivo; remark: listed apart in the source
Excerpt: In addition, we assessed the following Secondary Objectives: • a. Determine how rapidly the drug can be administered up to the total dose needed to achieve RASS −1. • b. Determine how long the calming effect persists after discontinuation of study drug administration. • c. Determine whether any adverse effects on blood pressure, heart rate, or respiratory drive occurs before or coincident with the achievement of Primary Objective. Stopping rules for blood pressure and heart rate, indicating a clinically significant event, are: • 1. drop in systolic BP<90 mm of Hg. • 2. drop in diastolic BP<60 mm of Hg • 3. drop below 50 beats per minute
The participants were continuously monitored during the study by the site personnel, including monitoring blood pressure and heart rate. Intermittent electrocardiograms were taken from the start of the infusion through resolution of the sedation and/or any adverse effects on blood pressure or heart rate.
Return to baseline parameters is defined as BP falling within 15 mm of Hg of baseline reading prior to drug administration or HR falling within 10 beats per minute of baseline reading prior to drug administration.

[3] = test system: subjects suffering from opiate withdrawal symptoms;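 note: inpatients in opioid withdrawal given intravenous infusion titrated upward every 30 min (up to 0.1 mcg/kg/hr steps) until COWS total, a clinician-rated 11-item withdrawal scale, fell by half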

In the case of `Cc1cccc([C@H](C)c2cnc[nH]2)c1C` [dexmedetomidine hydrochloride], the “Time to reach Cmax, range” value [1] is reported as 15 to 105 min, the Hemodynamic effects [2] is reported as “All” and the “adverse effect on blood pressure (systolic and diastolic) and heart rate” value [2] is reported as “no adverse effect”. The “infusion time at which stopping criteria of <60 mm Hg was met” value [2] was 135 min, the COW score ([3]; Day 1, Patient OP-1 (Treatment), 00:00 Hr) was 9 and the COW score ([3]; Day 1, Patient OP-1 (Treatment), 00:15 Hr) was 2. For the same molecule, the COW score ([3]; Day 1, Patient OP-1 (Treatment), 30 min. post Infusion) was 0, the COW score ([3]; Day 1, Patient OP-2 (Treatment), 00:00 Hr) was 15 and the COW score ([3]; Day 1, Patient OP-2 (Treatment), 00:15 Hr) was 11. For the same molecule, the COW score ([3]; Day 1, Patient OP-2 (Treatment), 00:30 Hr) was 9, the COW score ([3]; Day 1, Patient OP-2 (Treatment), 00:45 Hr) was 12 and the COW score ([3]; Day 1, Patient OP-2 (Treatment), 01:00 Hr) was 2. It also gave a COW score ([3]; Day 1, Patient OP-2 (Treatment), 30 min. post Infusion) of 16, a COW score ([3]; Day 1, Patient OP-3 (Treatment), 00:00 Hr) of 13 and a COW score ([3]; Day 1, Patient OP-3 (Treatment), 00:15 Hr) of 8. It also gave a COW score ([3]; Day 1, Patient OP-3 (Treatment), 00:30 Hr) of 8, a COW score ([3]; Day 1, Patient OP-3 (Treatment), 00:45 Hr) of 4 and a COW score ([3]; Day 1, Patient OP-3 (Treatment), 30 min. post Infusion) of 3. For the same molecule, the COW score ([3]; Day 1, Patient OP-6 (Treatment), 00:00 Hr) was 11, the COW score ([3]; Day 1, Patient OP-6 (Treatment), 00:15 Hr) was 7 and the COW score ([3]; Day 1, Patient OP-6 (Treatment), 00:30 Hr) was 2. It also gave a COW score ([3]; Day 1, Patient OP-6 (Treatment), 30 min. post Infusion) of 2, a COW score ([3]; Day 1, Patient OP-7 (Treatment), 00:00 Hr) of 10 and a COW score ([3]; Day 1, Patient OP-7 (Treatment), 00:15 Hr) of 8. For the same molecule, the COW score ([3]; Day 1, Patient OP-7 (Treatment), 30 min. post Infusion) was 0, the COW score ([3]; Day 1, Patient OP-9 (Treatment), 00:00 Hr) was 16 and the COW score ([3]; Day 1, Patient OP-9 (Treatment), 00:15 Hr) was 13. For the same molecule, the COW score ([3]; Day 1, Patient OP-9 (Treatment), 00:30 Hr) was 10, the COW score ([3]; Day 1, Patient OP-9 (Treatment), 00:45 Hr) was 9 and the COW score ([3]; Day 1, Patient OP-9 (Treatment), 01:00 Hr) was 10. The COW score ([3]; Day 1, Patient OP-9 (Treatment), 01:15 Hr) was 6, the COW score ([3]; Day 1, Patient OP-9 (Treatment), 30 min. post Infusion) was 9 and the COW score ([3]; Day 1, Patient OP-10 (Treatment), 00:00 Hr) was 10. It also gave a COW score ([3]; Day 1, Patient OP-10 (Treatment), 00:15 Hr) of 7, a COW score ([3]; Day 1, Patient OP-10 (Treatment), 00:30 Hr) of 1 and a COW score ([3]; Day 1, Patient OP-10 (Treatment), 30 min. post Infusion) of 3. For the same molecule, the COW score ([3]; Day 1, Patient OP-11 (Treatment), 00:00 Hr) was 16, the COW score ([3]; Day 1, Patient OP-11 (Treatment), 00:15 Hr) was 16 and the COW score ([3]; Day 1, Patient OP-11 (Treatment), 00:45 Hr) was 13. It also gave a COW score ([3]; Day 1, Patient OP-11 (Treatment), 01:00 Hr) of 14, a COW score ([3]; Day 1, Patient OP-11 (Treatment), 01:15 Hr) of 10 and a COW score ([3]; Day 1, Patient OP-11 (Treatment), 01:30 Hr) of 8. The COW score ([3]; Day 1, Patient OP-11 (Treatment), 30 min. post Infusion) was 8, the COW score ([3]; Day 1, Patient OP-12 (Treatment), 00:00 Hr) was 16 and the COW score ([3]; Day 1, Patient OP-12 (Treatment), 00:15 Hr) was 12. For the same molecule, the COW score ([3]; Day 1, Patient OP-12 (Treatment), 00:30 Hr) was 9, the COW score ([3]; Day 1, Patient OP-12 (Treatment), 00:45 Hr) was 9 and the COW score ([3]; Day 1, Patient OP-12 (Treatment), 01:00 Hr) was 10. It also gave a COW score ([3]; Day 1, Patient OP-12 (Treatment), 01:15 Hr) of 9, a COW score ([3]; Day 1, Patient OP-12 (Treatment), 01:30 Hr) of 4 and a COW score ([3]; Day 1, Patient OP-12 (Treatment), 30 min. post Infusion) of 5. For the same molecule, the COW score ([3]; Day 1, Patient OP-15 (Treatment), 00:00 Hr) was 13, the COW score ([3]; Day 1, Patient OP-15 (Treatment), 00:15 Hr) was 8 and the COW score ([3]; Day 1, Patient OP-15 (Treatment), 00:30 Hr) was 4. It also gave a COW score ([3]; Day 1, Patient OP-15 (Treatment), 30 min. post Infusion) of 4, a COW score ([3]; Day 1, Patient OP-17 (Treatment), 00:00 Hr) of 10 and a COW score ([3]; Day 1, Patient OP-17 (Treatment), 00:15 Hr) of 11. It also gave a COW score ([3]; Day 1, Patient OP-17 (Treatment), 00:30 Hr) of 9, a COW score ([3]; Day 1, Patient OP-17 (Treatment), 00:45 Hr) of 8 and a COW score ([3]; Day 1, Patient OP-17 (Treatment), 01:00 Hr) of 4. The COW score ([3]; Day 1, Patient OP-17 (Treatment), 30 min. post Infusion) was 5, the COW score ([3]; Day 2, Patient OP-1 (Treatment), 00:00 Hr) was 9 and the COW score ([3]; Day 2, Patient OP-1 (Treatment), 00:15 Hr) was 8. The COW score ([3]; Day 2, Patient OP-1 (Treatment), 00:30 Hr) was 2.
